Assay results from BindingDB's records for doi:10.1016/s0960-894x(03)00680-2 (Merck Research Laboratories, 2003).

Tests used:
Experiment in all cases: Protease Inhibition Assay
[1] = biological target: T1, Dimer of Gag-Pol polyprotein [489-587,Q496K,L499I,N526S,R530K,M535I,I543V,I551V,L552P,A560V,V566I,V571A,L579M,I582L] (Human immunodeficiency virus 1, UniProt P12497, A560V/I543V/I551V/I582L/L499I/L552P/L579M/M535I/N526S/Q496K/R530K/V566I/V571A)
T1 construct: 489-587
Experimental: (§1) Assay of HIV protease inhibition was performed by peptide cleavage using the substrate Val-Ser-Gln-Asn-beta-naphthylalanine*Pro-Ile-Val. Products of the cleavage reaction were quantified by HPLC detection, and data were fit to nonlinear least squares equations for determination of steady-state Michaelis-Menten kinetics.

[2] = biological target: T2, Dimer of Gag-Pol polyprotein [489-587,Q496K,L499I,M525I,N526D,M535I,R546K,L552P,A560V,G562S,I573V,L579M,I582L] (Human immunodeficiency virus 1, UniProt P12497, A560V/G562S/I573V/I582L/L499I/L552P/L579M/M525I/M535I/N526D/Q496K/R546K)
T2 construct: 489-587
Experimental: as §1

[3] = biological target: T3, Dimer of Gag-Pol polyprotein [489-587,Q496K] (Human immunodeficiency virus 1, UniProt P12497, Q496K); settings: pH 5.5; 30 °C
T3 construct: 489-587
Experimental: as §1

[4] = biological target: T4, Dimer of Gag-Pol polyprotein [489-587,Q496K,L499I,M535I,I543V,Q547E,L552P,I553V,V566I,V571F,I573V,L579M,I582L] (Human immunodeficiency virus 1, UniProt P12497, I543V/I553V/I573V/I582L/L499I/L552P/L579M/M535I/Q496K/Q547E/V566I/V571F)
T4 construct: 489-587
Experimental: as §1

Structure (SMILES)	IC50 [1] [nM]	IC50 [2] [nM]	IC50 [3] [nM]	IC50 [4] [nM]
O=C(N[C@H]1c2ccccc2OC[C@H]1O)[C@H](Cc1ccncc1)C[C@H](O)CN1CCN(Cc2cc3ccsc3s2)C[C@H]1C(=O)NCC(F)(F)F [(2S)-1-[(2S,4R)-2-hydroxy-4-{[(3S,4S)-3-hydroxy-3,4-dihydro-2H-1-benzopyran-4-yl]carbamoyl}-4-(pyridin-4-ylmethyl)butyl]-4-{thieno[2,3-b]thiophen-2-ylmethyl}-N-(2,2,2-trifluoroethyl)piperazine-2-carboxamide]	4.8	1.2	0.07	20
O=C(N[C@H]1c2ccccc2OC[C@H]1O)[C@H](Cc1cccnc1)C[C@H](O)CN1CCN(Cc2cc3ccsc3s2)C[C@H]1C(=O)NCC(F)(F)F [(2S)-1-[(2S,4R)-2-hydroxy-4-{[(3S,4S)-3-hydroxy-3,4-dihydro-2H-1-benzopyran-4-yl]carbamoyl}-4-(pyridin-3-ylmethyl)butyl]-4-{thieno[2,3-b]thiophen-2-ylmethyl}-N-(2,2,2-trifluoroethyl)piperazine-2-carboxamide]	3.2	0.43	0.03	5
